In US20090264415A2 (priority 2004, published 2009):
Read-outs that look alike come from different tables or passages of the source.

Legend:
[1] = system: peripheral blood mononuclear cells (PBMC) stimulated with allogeneic PBMC or EBV-transformed human B cells (RPMI1788); assay: Mixed lymphocyte reaction (MLR) assay; type: cell-based
Procedure, shortened: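 Responder PBMC co-cultured in triplicate with 30 Gy-irradiated allogeneic PBMC or RPMI1788 B cells plus compound (DMSO stock 10 mM, diluted in medium). After 5 days at 37° C, 1 μCi [3H]-thymidine added for 16 h more; incorporated cpm counted and proliferation inhibition calculated.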

[2] = system: production of human TNF-α by PBMC in response to LPS; assay: TNF-α assay (LPS-stimulated PBMC, sandwich ELISA); type: cell-based
Procedure: Peripheral blood mononuclear cells (herein referred as PBMC), in response to stimulation by lipopolysaccharide (hereinafter LPS), a gram-negative bacterial endotoxin, produce various […], in particular human TNF-α. Inhibition of the activation of PBMC can therefore be measured by the level of suppression of the production of TNF-α by PBMC in response to stimulation by LPS. Inhibition measurement was performed as follows: PBMC were isolated from heparinized peripheral blood by density gradient centrifugation over Lymphoprep (commercially available from Nycomed, Norway). LPS was then added to the PMBC suspension in complete medium (10^6 cells/ml) at a final concentration of 1 μg/ml. The pteridine derivative to be tested was added at different concentrations (0.1 μM, 1 μM and 10 μM) and the cells were incubated at 37° C. for 72 hours in 5% CO2. The supernatants were collected, then TNF-α concentrations were measured with respectively an anti-TNF-α antibody in a sandwich ELISA (Duo Set ELISA human TNFα, commercially available from R&D Systems, United Kingdom). The colorimetric reading of the ELISA was measured by a Multiskan RC plate reader (commercially available from ThermoLabsystems, Finland) at 450 nm (reference wavelength: 690 nm). Data analysis was performed with Ascent software 2.6. (also from ThermoLabsystems, Finland): a standard curve (recombinant human TNFα) was drawn and the amount (pg/ml) of each sample on the standard curve was determined. The % suppression of human TNFα production by the pyrido[3,2-d]pyrimidine derivatives of the invention was calculated using the formula: [formula]

[3] = 50% suppression of the MLR, [3H]-thymidine incorporation, read-out: MLR
[4] = LPS 1 μg/ml, 72 hours, read-out: TNF α
[5] = Homo sapiens, RPMI-1788, 50% suppression of the MLR, [3H]-thymidine incorporation, read-out: MLR
[6] = Homo sapiens, PBMC, LPS 1 μg/ml, 72 hours, read-out: TNF α

| Structure (SMILES) | IC50 [1, 3] | IC50 [2, 4] | IC50 [1, 5] | IC50 [2, 6] | other results |
| --- | --- | --- | --- | --- | --- |
| COc1ccc(-c2ccc3nc(N(C)C)nc(N4CCN(C(=O)Nc5cccc(C)c5)CC4)c3n2)cc1OC [Example 15] | 0.4 µM | 3.3 µM | – | – | – |
| COc1ccc(-c2ccc3nc(OC(C)CN4CCCC4)nc(N4CCN(C(=O)Nc5cccc(C)c5)CC4)c3n2)cc1OC (stereo not shown) [Example 17] | 2.7 µM | 5.2 µM | – | – | – |
| COc1ccc(-c2ccc3nc(N)nc(OCCOc4ccccc4)c3n2)cc1OC [Example 25, 2-amino-4-(2-phenoxyethoxy)-6-(3,4-dimethoxyphenyl)-pyrido[3,2-d]pyrimidine] | – | – | 0.3 µM | 0.7 µM | – |
| COc1ccc(-c2ccc3nc(N)nc(Nc4ccc5c(c4)OCO5)c3n2)cc1OC [Example 28, 2-amino-4-[3,4-(methylenedioxy)aniline]-6-(3,4-dimethoxyphenyl)pyrido[3,2-d]pyrimidine] | 0.7 µM | 0.8 µM | – | – | – |
| COc1ccc(-c2ccc3nc(N)nc(Nc4cccc(Br)c4)c3n2)cc1OC [Example 29, 2-amino-4-(3-bromo-anilino)-6-(3,4-dimethoxyphenyl)pyrido[3,2-d]-pyrimidine] | – | – | 0.7 µM | 0.8 µM | – |
| COc1ccc(-c2ccc3nc(N)nc(N4CCN(C)CC4)c3n2)cc1OC [Example 31, 2-amino-4-(N-methyl-piperazino)-6-(3,4-dimethoxyphenyl)-pyrido[3,2-d]pyrimidine] | – | – | 0.9 µM | 0.8 µM | – |
| COc1ccc(-c2ccc3nc(N)nc(NCCN4CCOCC4)c3n2)cc1OC [Example 33, 2-amino-4-[4-(2-aminoethyl)morpholino]-6-(3,4-dimethoxyphenyl)-pyrido[3,2-d]pyrimidine] | 1.9 µM | 0.7 µM | – | – | – |
| COc1ccc(-c2ccc3nc(N)nc(NCC(OC)OC)c3n2)cc1OC [Example 34, 2-amino-4-(2,2-dimethoxyethylamino)-6-(3,4-dimethoxyphenyl)pyrido[3,2-d]pyrimidine] | – | – | – | – | IC50 ([1]; Homo sapiens, RPMI-1788, read-out: MLR (μM)): 0.8 µM; IC50 ([2]; Homo sapiens, PBMC, 72 h, read-out: TNF α (μM)): 0.6 µM |
| COc1ccc(-c2ccc3nc(N)nc(NCc4ccccn4)c3n2)cc1OC [Example 35, 2-amino-4-[2-(aminomethyl)pyridino]-6-(3,4-dimethoxyphenyl)-pyrido[3,2-d]pyrimidine] | 0.8 µM | 0.7 µM | – | – | – |
| COc1ccc(-c2ccc3nc(N)nc(N4CCN(Cc5ccc6c(c5)OCO6)CC4)c3n2)cc1OC [Example 50, 2-amino-4-(1-piperonyl-piperazin-1-yl)-6-(3,4-dimethoxyphenyl)-pyrido[3,2-d]pyrimidine] | 7.4 µM | 8.5 µM | – | – | – |
| COc1ccc(-c2ccc3nc(N)nc(N4CCN(Cc5ccccc5)CC4)c3n2)cc1OC [Example 52, 2-amino-4-(1-benzylpiperazin-1-yl)-6-(3,4-dimethoxyphenyl)-pyrido[3,2-d]pyrimidine] | 0.8 µM | 0.46 µM | – | – | – |
| COc1ccc(-c2ccc3nc(N)nc(N4CCN(C(=O)Nc5cc(Cl)nc(Cl)c5)CC4)c3n2)cc1OC [Example 55, 2-amino-4(N-2,6-dichloro-pyridinyl-carbamoyl-piperazin-1-yl)-6-(3,4-dimethoxyphenyl)-pyrido[3,2-d]pyrimidine] | 0.3 µM | 0.4 µM | – | – | – |
| COc1nc(N2CCN(C(=O)Nc3cccc(C)c3)CC2)c2nc(-c3ccc(OC)c(OC)c3)ccc2n1 [Example 90, 2-methoxy-4-[(N-3-methyl-phenylcarbamoyl)-piperazin-1-yl]-6-(3,4-dimethoxy-phenyl)-pyrido[3,2-d]pyrimidine] | 0.14 µM | 0.5 µM | – | – | – |
| COc1cc(-c2ccc3nc(N)nc(N4CCOCC4)c3n2)ccc1O [Example 96, 2-amino-4-(N-morpholino)-6-(4-hydroxy-3-methoxy)-pyrido[3,2-d]pyrimidine] | 0.8 µM | 0.6 µM | – | – | – |
| CCOc1ccc(-c2ccc3nc(N)nc(N4CCOCC4)c3n2)cc1OC [Example 97, 2-amino-4-(N-morpholino)-6-(4-ethoxy-3-methoxyphenyl)-pyrido[3,2-d]pyrimidine] | 0.5 µM | 0.3 µM | – | – | – |
| COc1cc(-c2ccc3nc(N)nc(N4CCOCC4)c3n2)ccc1OC(C)C [Example 99, 2-amino-4-(N-morpholino)-6-(4-isopropoxy-3-methoxy-phenyl)-pyrido[3,2-d]pyrimidine] | 0.7 µM | 1 µM | – | – | – |

| Structure (SMILES) | IC50 [1, 3] | IC50 [2, 4] | IC50 [1, 5] | IC50 [2, 6] | other results |
| --- | --- | --- | --- | --- | --- |
| COc1cc(-c2ccc3nc(N)nc(N4CCNCC4)c3n2)ccc1O [Example 100, 2-amino-4-(N-piperazin-1-yl)-6-(3-methoxy-4-hydroxyphenyl)-pyrido[3,2-d]pyrimidine] | 3.3 µM | 2.4 µM | – | – | – |
| COc1cc(-c2ccc3nc(N)nc(N4CCN(C(=O)Nc5ccc(F)cc5)CC4)c3n2)ccc1O [Example 101, 2-amino-4-[(N-4-fluoro-phenyl-carbamoyl)-piperazin-1-yl]-6-(4-hydroxy-3-methoxy-phenyl)-pyrido[3,2-d]pyrimidine] | 0.5 µM | 0.6 µM | – | – | – |
| CCOc1ccc(-c2ccc3nc(N)nc(N4CCN(C(=O)Nc5ccc(F)cc5)CC4)c3n2)cc1OC [Example 102] | 0.04 µM | 0.6 µM | – | – | – |
| COc1cc(-c2ccc3nc(N)nc(N4CCN(C(=O)Nc5ccc(F)cc5)CC4)c3n2)ccc1OC(C)C [Example 103, 2-amino-4-[(N-4-fluoro-phenyl-carbamoyl)-piperazin-1-yl]-6-(4-isopropoxy-3-methoxy-phenyl)-pyrido[3,2-d]pyrimidine] | 0.07 µM | 6.4 µM | – | – | – |
| COc1cc(-c2ccc3nc(N)nc(N4CCN(C(=O)Nc5cccc(C)c5)CC4)c3n2)ccc1O [Example 104, 2-amino-4-[(N-3-methyl-phenyl-carbamoyl)-piperazin-1-yl]-6-(4-hydroxy-3-methoxyphenyl)-pyrido[3,2-d]pyrimidine] | 0.4 µM | 0.3 µM | – | – | – |
| COc1ccc(-c2ccc3ncnc(N4CCN(c5ccc(C)cc5)CC4)c3n2)cc1OC [Example 105, 4-(4-methyl-phenyl-piperazin-1-yl)-6-(3,4-dimethoxy-phenyl)-pyrido[3,2-d]pyrimidine] | 0.8 µM | 0.09 µM | – | – | – |
| COc1ccc(-c2ccc3ncnc(N4CCNCC4)c3n2)cc1OC [Example 107, 4-(N-piperazin-1-yl)-6-(3,4-dimethoxyphenyl)-pyrido[3,2-d]-pyrimidine] | 3.8 µM | 2.7 µM | – | – | – |
| COc1ccc(-c2ccc3ncnc(N4CCNCC4)c3n2)cc1C [Example 116, 4-(piperazin-1-yl)-6-(3-methyl-4-methoxyphenyl)-pyrido[3,2-d]pyrimidine] | – | – | 5.1 µM | 8.1 µM | – |
| Clc1ccc(-c2ccc3ncnc(N4CCOCC4)c3n2)cc1 [Example 124, 4-morpholino-6-(4-chlorophenyl)-pyrido[3,2-d]pyrimidine] | – | – | 7.2 µM | 10 µM | – |
| COc1ccc(-c2ccc3nc(N)nc(N4CCOCC4)c3n2)cc1C [Example 163, 2-amino-4-(morpholino)-6-(3-methyl-4-methoxyphenyl)pyrido[3,2-d]pyrimidine] | – | – | 3.6 µM | 6.5 µM | – |
| COc1ccc(-c2ccc3nc(N)nc(N4CCOCC4)c3n2)cc1Cl [Example 164, 2-amino-4-(morpholino)-6-(3-chloro-4-methoxyphenyl)pyrido[3,2-d]pyrimidine] | – | – | 0.6 µM | 1.5 µM | – |
| Nc1nc(N2CCOCC2)c2nc(-c3ccc4c(c3)OCCO4)ccc2n1 [Example 165, 2-amino-4-(morpholino)-6-(1,4-benzodioxane-phenyl)pyrido[3,2-d]pyrimidine] | 0.6 µM | 0.9 µM | – | – | – |
| CCOc1ccc(-c2ccc3nc(N)nc(N4CCOCC4)c3n2)cc1F [Example 166, 2-amino-4-morpholino-6-(3-fluoro-4-ethoxy-phenyl)-pyrido[3,2-d]pyrimidine] | – | – | 0.7 µM | 0.8 µM | – |
| CC(=O)N1CCN(c2nc(N)nc3ccc(-c4ccc5c(c4)OCO5)nc23)CC1 [Example 190, 2-amino-4-[N-acetyl-piperazin-1-yl]-6-(3,4-methylenedioxyphenyl)-pyrido[3,2-d]pyrimidine] | – | – | 0.8 µM | 4.8 µM | – |
| Nc1nc(N2CCN(CC(=O)Nc3nccs3)CC2)c2nc(-c3ccc4c(c3)OCO4)ccc2n1 [Example 191] | – | – | 0.4 µM | 3.5 µM | – |
| Nc1nc(N2CCN(C(=O)COc3ccc(Cl)cc3)CC2)c2nc(-c3ccc4c(c3)OCO4)ccc2n1 [Example 193, 2-amino-4-[N-(4-chlorophenoxy-acetyl)-piperazin-1-yl]-6-(3,4-methylenedioxyphenyl)-pyrido[3,2-d]pyrimidine] | – | – | 0.04 µM | 5.8 µM | – |
